Earlier results, collected in patent US20100212666A1 (priority 2006, published 2010).

Conditions: in vivo

CC(C)c1cccc(C(C)C)c1O [propofol]
Effect on resting ventilation at 1 C50 for respiratory depression: minimally depresses resting ventilation
Sedation at 1 C50 for respiratory depression: adequate sedation
